Data from PubChem BioAssay AID1963960 (Molecular Pharmacology Branch, DTP, NCI, 2024).

Tested on: MDA-MB-468 spheroids with HUVEC/MSC, viability
Assay: Anticancer human tumor MDA-MB-468 cell line growth inhibition [PI3K];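 note: spheroids exposed to agents for seven days before readout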;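 for viability, T/C: 100% = DMSO vehicle control viability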
Conditions: for IC50: curve of first compound; for viability, T/C: stronger effect = lower value
From the text: Combinatorial screen of targeted agents with the PI3K inhibitors inavolisib, alpelisib, duvelisib, and copanlisib in multi-cell type tumor spheroids
A high-throughput screen of multi-cell type tumor spheroids was designed to identify active combinations of targeted small molecules and PI3K pathway inhibitors. Complex spheroids include a stromal component modeled by human endothelial cells (HUVEC) and fibroblasts modeled by human mesenchymal stem cells (MSCs). The concentration ranges selected for each drug and investigational agent were based upon clinically achievable concentrations if the clinical Cmax of the agent was known.
Compounds. The drugs and investigational agents: inavolisib (NSC800729), alpelisib (NSC765974), duvelisib (NSC772469), copanlisib (NSC816437), ipatasertib (NSC767898), afuresertib (NSC778305), talazoparib (NSC767125), sapanisertib (NSC764658), selumetinib (NSC741078), tovorafenib (DAY101, NSC766906), vemurafenib (NSC761431), ravoxertinib (NSC781343), sotorasib (NSC818433), MRTX1133 (NSC 836407), abemaciclib (NSC 768073), palbociclib (NSC758247), venetoclax (NSC 766270), SY5609 (NSC837396), enzalutamide (NSC755605), and darolutamide (NSC825331), were obtained from the National Cancer Institute (NCI) Developmental Therapeutics Program Chemical Repository. The FDA-approved anticancer drug set is available from the NCI Developmental Therapeutics Program. […] The stock solutions were prepared in dimethyl sulfoxide (DMSO, Sigma-Aldrich, St. Louis, MO, cat. D2650) at 800-fold the tested concentration and stored at -70 degrees C prior to their use. All drugs and investigational agents were tested over a range starting from a high concentration at or near the clinical Cmax and decreasing in half-log increments. If the clinical Cmax for an agent had not been determined, the highest concentration tested was 10 microM.
Cell Culture. All cells were maintained in an incubator at 37 degrees C and 5% CO2 with 95% humidity. The PDC lines were cultured according to standard operating procedures established by the NCI PDMR (https://pdmr.cancer.gov/sops/default.htm). All PDCs were thawed and cultured in Matrigel-coated flasks prepared with a working solution of 1X Ham's F-12 nutrient mix, without supplementation (Invitrogen, Waltham, MA, cat. 11765054), 100 U/mL penicillin-streptomycin (Invitrogen, cat. 15140122), and 2.5% Matrigel (Corning Inc., Corning, NY, cat. 354248) for the first three passages. The 354836-022-R-J1-PDC, 475296-252-R-J1-PDC, and 997726-040-R-J2-PDC lines were cultured in 6A media, which includes advanced DMEM/F-12 (Thermo Fisher Scientific, cat. 12634028), 10 mM HEPES (Thermo Fisher Scientific, cat. 15630080), 1X GlutaMAX supplement (Thermo Fisher Scientific, cat. 35050061), 0.1 mg/mL primocin (InvivoGen, San Diego, CA, cat. ant-pm-2), 10% defined fetal bovine serum, heat inactivated (HyClone Laboratories Inc., Logan, UT, cat. SH30070.03HI), 50% L-WRN conditioned media (ATCC, cat. CRL-3276), 1.25 mM N-Acetyl-L-cysteine (Sigma-Aldrich, cat. A9165), 10 mM nicotinamide (Sigma-Aldrich, cat. N0636), 1X B-27 supplement (Thermo Fisher Scientific, cat. 17504044), 1X N-2 supplement (Thermo Fisher Scientific, cat. 17502048), and 10 microM Y-27632 dihydrochloride (Tocris Bioscience, Bristol, United Kingdom, cat. 1254). The 624824-186-R-J2-PDC line was cultured in 6C/Colon 1B media, which includes all 6A media components plus 50 ng/mL human EGF recombinant protein (Thermo Fisher Scientific, cat. PHG0311). […]

[1] = second compound 0.0316 µM, first compound 0.000316 µM
[2] = second compound 0.0316 µM, first compound 0.001 µM
[3] = second compound 0.0316 µM, first compound 0.00316 µM
[4] = second compound 0.0316 µM, first compound 0.01 µM
[5] = second compound 0.0316 µM, first compound 0.0316 µM
[6] = second compound 0.0316 µM, first compound 0.1 µM
[7] = second compound 0.1 µM, first compound 0.000316 µM
[8] = second compound 0.1 µM, first compound 0.001 µM
[9] = second compound 0.1 µM, first compound 0.00316 µM
[10] = second compound 0.1 µM, first compound 0.01 µM
[11] = second compound 0.1 µM, first compound 0.0316 µM
[12] = second compound 0.1 µM, first compound 0.1 µM
[13] = second compound 0.316 µM, first compound 0.000316 µM
[14] = second compound 0.316 µM, first compound 0.001 µM
[15] = second compound 0.316 µM, first compound 0.00316 µM
[16] = second compound 0.316 µM, first compound 0.01 µM
[17] = second compound 0.316 µM, first compound 0.0316 µM
[18] = second compound 0.316 µM, first compound 0.1 µM
[19] = second compound 1 µM, first compound 0.000316 µM
[20] = second compound 1 µM, first compound 0.001 µM
[21] = second compound 1 µM, first compound 0.00316 µM
[22] = second compound 1 µM, first compound 0.01 µM
[23] = second compound 1 µM, first compound 0.0316 µM
[24] = second compound 1 µM, first compound 0.1 µM
[25] = second compound 3.16 µM, first compound 0.000316 µM
[26] = second compound 3.16 µM, first compound 0.001 µM
[27] = second compound 3.16 µM, first compound 0.00316 µM
[28] = second compound 3.16 µM, first compound 0.01 µM
[29] = second compound 3.16 µM, first compound 0.0316 µM
[30] = second compound 3.16 µM, first compound 0.1 µM
[31] = second compound 10 µM, first compound 0.000316 µM
[32] = second compound 10 µM, first compound 0.001 µM
[33] = second compound 10 µM, first compound 0.00316 µM
[34] = second compound 10 µM, first compound 0.01 µM
[35] = second compound 10 µM, first compound 0.0316 µM
[36] = second compound 10 µM, first compound 0.1 µM

SMILES: CC(C)n1nc(-c2ccc3oc(N)nc3c2)c2c(N)ncnc21 + Cc1nc(NC(=O)N2CCCC2C(N)=O)sc1-c1ccnc(C(C)(C)C(F)(F)F)c1
- IC50 (second compound 0.0316 µM): 50.6 nM
- IC50 (second compound 0.1 µM): 33 nM
- IC50 (second compound 0.316 µM): 24.5 nM
- IC50 (second compound 1 µM): 19 nM
- IC50 (second compound 3.16 µM): 14.7 nM
- IC50 (second compound 10 µM): < 0.316 nM
- viability, T/C [1]: 88.3%
- viability, T/C [2]: 82.8%
- viability, T/C [3]: 89.5%
- viability, T/C [4]: 101%
- viability, T/C [5]: 74.6%
- viability, T/C [6]: 14.4%
- viability, T/C [7]: 93.7%
- viability, T/C [8]: 79.6%
- viability, T/C [9]: 85.5%
- viability, T/C [10]: 95%
- viability, T/C [11]: 51.6%
- viability, T/C [12]: 10.8%
- viability, T/C [13]: 99.5%
- viability, T/C [14]: 94.3%
- viability, T/C [15]: 86.2%
- viability, T/C [16]: 82.5%
- viability, T/C [17]: 40.6%
- viability, T/C [18]: 10.7%
- viability, T/C [19]: 86.4%
- viability, T/C [20]: 75.6%
- viability, T/C [21]: 63.6%
- viability, T/C [22]: 66.2%
- viability, T/C [23]: 42.2%
- viability, T/C [24]: 11.8%
- viability, T/C [25]: 64.5%
- viability, T/C [26]: 58.4%
- viability, T/C [27]: 61.1%
- viability, T/C [28]: 59.2%
- viability, T/C [29]: 31.8%
- viability, T/C [30]: 9.62%
- viability, T/C [31]: 42.4%
- viability, T/C [32]: 21.8%
- viability, T/C [33]: 32.1%
- viability, T/C [34]: 20.7%
- viability, T/C [35]: 18.5%
- viability, T/C [36]: 5.69%

SMILES: CC(=O)c1c(C)c2cnc(Nc3ccc(N4CCNCC4)cn3)nc2n(C2CCCC2)c1=O + CC(Nc1ncnc2nc[nH]c12)c1cc2cccc(Cl)c2c(=O)n1-c1ccccc1
- IC50 (second compound 0.0316 µM): > 100 nM
- IC50 (second compound 0.1 µM): > 100 nM
- IC50 (second compound 0.316 µM): > 100 nM
- IC50 (second compound 1 µM): > 100 nM
- IC50 (second compound 3.16 µM): > 100 nM
- IC50 (second compound 10 µM): < 0.316 nM
- viability, T/C [1]: 92.6%
- viability, T/C [2]: 93.9%
- viability, T/C [3]: 84.6%
- viability, T/C [4]: 103%
- viability, T/C [5]: 99.7%
- viability, T/C [6]: 88.1%
- viability, T/C [7]: 88.6%
- viability, T/C [8]: 91.2%
- viability, T/C [9]: 84.1%
- viability, T/C [10]: 92.7%
- viability, T/C [11]: 80%
- viability, T/C [12]: 86.4%
- viability, T/C [13]: 84.7%
- viability, T/C [14]: 78.9%
- viability, T/C [15]: 81.3%
- viability, T/C [16]: 72.8%
- viability, T/C [17]: 90%
- viability, T/C [18]: 78.5%
- viability, T/C [19]: 66.4%
- viability, T/C [20]: 71.4%
- viability, T/C [21]: 59.3%
- viability, T/C [22]: 83.3%
- viability, T/C [23]: 76.2%
- viability, T/C [24]: 62.8%
- viability, T/C [25]: 59.6%
- viability, T/C [26]: 53.1%
- viability, T/C [27]: 62.3%
- viability, T/C [28]: 58.1%
- viability, T/C [29]: 67.2%
- viability, T/C [30]: 58.8%
- viability, T/C [31]: 38.9%
- viability, T/C [32]: 38.5%
- viability, T/C [33]: 39.3%
- viability, T/C [34]: 46.7%
- viability, T/C [35]: 45.7%
- viability, T/C [36]: 46.1%
